Tests used:
RBL-2H3 cells = experiment: Binding of FITC-labeled Ig LC to RBL-2H3 mast cell model (FACScan flow cytometer); format: cell-based, rat
Method: Basophilic leukemia cells RBL-2H3 (a gift of C. Fewtrell, Ithaca, N.Y., U.S.A.) of the rat, an established model for mast cells, were incubated with 200 ng/10^5 cells Ig LC labeled with fluorescein isothiocyanate. They were incubated for 30 minutes at 4° C. in the presence or absence of 250 μg/ml of the peptide LCBP prepared in preparation 1 (peptide binding to the light chain). Subsequently, they were washed using a phosphate-buffered saline supplemented with 1% v/v fetal calf serum and 0.01% w/v sodium azide. Binding of FITC-labeled Ig LC to RBL-2H3 cells was analyzed using a FACScan flow cytometer.
Curve 4 represents the autofluorescence of unlabeled RBL-2H3 cells.

mice = experiment: Bronchoconstriction (Penh, plethysmography) in mice passively sensitized with TNP-specific Ig LC and challenged intranasally with PSA; format: in vivo
Method: Lightly anaesthetized with halothane, mice were passively sensitized by injection with trinitrophenyl (TNP)-specific Ig LC (2 μg in 50 μl of sterile saline) in the retroorbital plexus. Control mice received only 50 μl of sterile saline. Thirty minutes after injection, while being lightly anaesthetized with halothane, all mice received intranasally 50 μl PSA-solution (picrylsulphonic acid dissolved in phosphate-buffered saline).
A part of each of these two groups of mice simultaneously received 200 μg LCBP (the peptide prepared in Example 1) intranasally.
Bronchoconstriction was measured as described by Kraneveld A. D. et al. (ref. 3) and Zuany-Amorim et al. (ref. 6). In short, five minutes before intranasal application of PSA, mice were placed in a plethysmographic chamber (Buxco Electronics Inc., Shanon, Conn.) in order to analyze respiration and to obtain basal line readings. After the intranasal administration, the animals were directly returned to the chamber. The respiratory resistance was measured for a period of 45 minutes. The respiratory resistance is expressed as a dimensionless value calculated by using the formula for the Penh (ref. 4).

Ac-AHWSGHCCL-NH2 (cysteine pairing not given here) [LCBP]
Inhibition of Ig LC binding to mast cells (RBL-2H3 cells; LCBP 0.25 mg/ml, FIG. 1 curve 2): can be inhibited | Inhibition of Ig LC binding to mast cells (RBL-2H3 cells; LCBP 0.50 mg/ml, FIG. 1 curve 3): can be inhibited | Penh (maximum, respiratory resistance) (mice; LCBP/PBS/PSA group (200 μg LCBP intranasally, saline instead of Ig LC), time 0 min, basal line reading before the challenge): 0.44 ± 0.05 | Penh (maximum, respiratory resistance) (mice; LCBP/PBS/PSA group (200 μg LCBP intranasally, saline instead of Ig LC), time 2.5 min): 0.60 ± 0.12 | Penh (maximum, respiratory resistance) (mice; LCBP/PBS/PSA group (200 μg LCBP intranasally, saline instead of Ig LC), time 5 min): 0.65 ± 0.23 | Penh (maximum, respiratory resistance) (mice; LCBP/PBS/PSA group (200 μg LCBP intranasally, saline instead of Ig LC), time 7.5 min): 0.74 ± 0.12 | Penh (maximum, respiratory resistance) (mice; LCBP/PBS/PSA group (200 μg LCBP intranasally, saline instead of Ig LC), time 10 min): 0.53 ± 0.03 | Penh (maximum, respiratory resistance) (mice; LCBP/PBS/PSA group (200 μg LCBP intranasally, saline instead of Ig LC), time 15 min): 0.49 ± 0.06 | Penh (maximum, respiratory resistance) (mice; LCBP/PBS/PSA group (200 μg LCBP intranasally, saline instead of Ig LC), time 20 min): 0.49 ± 0.03 | Penh (maximum, respiratory resistance) (mice; LcBP/Ig LC/PSA group (200 μg LCBP intranasally, Ig LC-sensitized mice), time 0 min, basal line reading before the challenge): 0.43 ± 0.05 | Penh (maximum, respiratory resistance) (mice; LcBP/Ig LC/PSA group (200 μg LCBP intranasally, Ig LC-sensitized mice), time 2.5 min): 0.87 ± 0.20 | Penh (maximum, respiratory resistance) (mice; LcBP/Ig LC/PSA group (200 μg LCBP intranasally, Ig LC-sensitized mice), time 5 min): 1.12 ± 0.20 | Penh (maximum, respiratory resistance) (mice; LcBP/Ig LC/PSA group (200 μg LCBP intranasally, Ig LC-sensitized mice), time 7.5 min): 0.87 ± 0.10 | Penh (maximum, respiratory resistance) (mice; LcBP/Ig LC/PSA group (200 μg LCBP intranasally, Ig LC-sensitized mice), time 10 min): 0.87 ± 0.20 | Penh (maximum, respiratory resistance) (mice; LcBP/Ig LC/PSA group (200 μg LCBP intranasally, Ig LC-sensitized mice), time 15 min): 0.85 ± 0.01 | Penh (maximum, respiratory resistance) (mice; LcBP/Ig LC/PSA group (200 μg LCBP intranasally, Ig LC-sensitized mice), time 20 min): 0.52 ± 0.05 | Inhibition of bronchoconstriction (elevation of Penh) induced by antigen (PSA) (mice; intranasal LCBP during passive sensitization (i.v.) with Ig LC): completely inhibit

From patent US7056511B2, “Inhibition of protein binding to mast cells” (Fornix Biosciences N.V., priority 1998, dated 2006)
